Source: the NIST ThermoML archive (doi:10.1021/je600559q)
± gives the expanded uncertainty stated by the source.

Assays:
[1] = Liquid
[2] = refractive index (Na D-line) (dimensionless); conditions: 293.1 K; 101.33 kPa; Liquid; Standard Abbe refractometry

SMILES: CC1CCCCC1O (configuration not stated) [2-methylcyclohexanol]
- vapor or sublimation pressure ([1]; 361.23 K): 5.394 ± 0.02 kPa
- vapor or sublimation pressure ([1]; 362.23 K): 5.668 ± 0.02 kPa
- vapor or sublimation pressure ([1]; 363.13 K): 5.919 ± 0.02 kPa
- vapor or sublimation pressure ([1]; 365.7 K): 6.693 ± 0.02 kPa
- vapor or sublimation pressure ([1]; 367.68 K): 7.345 ± 0.021 kPa
- vapor or sublimation pressure ([1]; 369.92 K): 8.152 ± 0.021 kPa
- vapor or sublimation pressure ([1]; 371.63 K): 8.817 ± 0.021 kPa
- vapor or sublimation pressure ([1]; 373.16 K): 9.448 ± 0.021 kPa
- vapor or sublimation pressure ([1]; 375.31 K): 10.4 ± 0.021 kPa
- vapor or sublimation pressure ([1]; 377.78 K): 11.58 ± 0.021 kPa
- vapor or sublimation pressure ([1]; 380.39 K): 12.94 ± 0.021 kPa
- vapor or sublimation pressure ([1]; 383.11 K): 14.52 ± 0.022 kPa
- vapor or sublimation pressure ([1]; 385.95 K): 16.32 ± 0.022 kPa
- vapor or sublimation pressure ([1]; 386.1 K): 16.42 ± 0.022 kPa
- vapor or sublimation pressure ([1]; 389.56 K): 18.86 ± 0.022 kPa
- vapor or sublimation pressure ([1]; 393.07 K): 21.65 ± 0.023 kPa
- vapor or sublimation pressure ([1]; 395.88 K): 24.1 ± 0.023 kPa
- vapor or sublimation pressure ([1]; 398.52 K): 26.6 ± 0.024 kPa
- vapor or sublimation pressure ([1]; 402.67 K): 30.99 ± 0.024 kPa
- vapor or sublimation pressure ([1]; 406.67 K): 35.73 ± 0.025 kPa
- vapor or sublimation pressure ([1]; 410.73 K): 41.11 ± 0.026 kPa
- vapor or sublimation pressure ([1]; 414 K): 45.9 ± 0.027 kPa
- vapor or sublimation pressure ([1]; 418.26 K): 52.85 ± 0.029 kPa
- vapor or sublimation pressure ([1]; 424.63 K): 64.66 ± 0.033 kPa
- vapor or sublimation pressure ([1]; 439.57 K): 100.47 ± 0.036 kPa
- refractive index [2]: 1.46313 ± 0.00072

SMILES: CC(=O)OC1CCCCC1C (configuration not stated) [2-methylcyclohexyl acetate]
- vapor or sublimation pressure ([1]; 368.01 K): 5.32 ± 0.02 kPa
- vapor or sublimation pressure ([1]; 369.86 K): 5.758 ± 0.02 kPa
- vapor or sublimation pressure ([1]; 371.87 K): 6.261 ± 0.02 kPa
- vapor or sublimation pressure ([1]; 373.83 K): 6.787 ± 0.02 kPa
- vapor or sublimation pressure ([1]; 376.56 K): 7.594 ± 0.021 kPa
- vapor or sublimation pressure ([1]; 379.93 K): 8.675 ± 0.021 kPa
- vapor or sublimation pressure ([1]; 383.36 K): 9.912 ± 0.021 kPa
- vapor or sublimation pressure ([1]; 386.65 K): 11.22 ± 0.021 kPa
- vapor or sublimation pressure ([1]; 391.27 K): 13.32 ± 0.021 kPa
- vapor or sublimation pressure ([1]; 393.39 K): 14.38 ± 0.021 kPa
- vapor or sublimation pressure ([1]; 394.15 K): 14.77 ± 0.021 kPa
- vapor or sublimation pressure ([1]; 398.42 K): 17.2 ± 0.022 kPa
- vapor or sublimation pressure ([1]; 401.6 K): 19.19 ± 0.022 kPa
- vapor or sublimation pressure ([1]; 403.3 K): 20.34 ± 0.022 kPa
- vapor or sublimation pressure ([1]; 405.73 K): 22.08 ± 0.022 kPa
- vapor or sublimation pressure ([1]; 410.71 K): 26.01 ± 0.023 kPa
- vapor or sublimation pressure ([1]; 415.57 K): 30.39 ± 0.024 kPa
- vapor or sublimation pressure ([1]; 418.74 K): 33.54 ± 0.024 kPa
- vapor or sublimation pressure ([1]; 421.2 K): 36.16 ± 0.025 kPa
- vapor or sublimation pressure ([1]; 423.84 K): 39.17 ± 0.025 kPa
- vapor or sublimation pressure ([1]; 426.54 K): 42.45 ± 0.026 kPa
- vapor or sublimation pressure ([1]; 429.41 K): 46.21 ± 0.026 kPa
- vapor or sublimation pressure ([1]; 433.2 K): 51.55 ± 0.028 kPa
- vapor or sublimation pressure ([1]; 440.4 K): 63.09 ± 0.031 kPa
- vapor or sublimation pressure ([1]; 458 K): 100.13 ± 0.034 kPa
- refractive index [2]: 1.43896 ± 0.00072
